Consider one compound from ChEMBL document CHEMBL2150913, “Novel Benzoisoxazole as Partial Agonist of the 5-HT4 Receptor: Patent Highlight” (ACS Med Chem Lett, 2012).

The subject of data set [1] is Brain. Briefly: AUC in rat brain at 5 mg/kg, sc. Format: ADME, organism-based. On the set-up: dose 5 mg/kg, route subcutaneous. The note with it: in vivo.
Data set [2] is described as follows: Cytotoxicity against human THLE cells assessed as cell health and cell depletion. In kind it is cell-based.
Data set [3] has as its system Plasma. Briefly: AUC in rat plasma at 5 mg/kg, sc. On the set-up: dose 5 mg/kg, route subcutaneous. In kind it is ADME, organism-based. As to conditions: in vivo.

Take `OC1(CN2CCC(COc3noc4cccc(O[C@@H]5CCOC5)c34)CC2)CCOCC1` [PF-04995274]: the AUC in data set [1] was found to be 1790 ng·h/g; in data set [3] it was 1760 ng·h/g. In addition, the Activity in data set [2] was 300 µM.
